According to patent publication US12622977B2, “Antibody drug conjugate” (CHIA TAI TIANQING PHARMACEUTICAL GROUP CO., LTD., priority 2020, dated 2026):
pEC50, pIC50: −log10 of the molar value.

How the values were obtained:
Assay type in all cases: cell-based
[1] = tested on: HER2 positive tumor cells NCI-N87; test: Proliferation inhibition of NCI-N87 cells by DXD and DDDXD (CCK-8); conditions: Homo sapiens, NCI-N87, 120 h
Procedure: DXD and DDDXD were pre-diluted to 140,000 ng/mL in culture medium and labeled as S1, and then five-fold serially diluted to obtain their corresponding reference samples S1-S9; the final drug concentration range was 35000 ng/mL to 0.0896 ng/mL with 9 concentrations in total. HER2 positive tumor cells NCI-N87 in the logarithmic growth phase were collected, adjusted to a density of 1×10^5 cells/mL, and plated at 100 μL per well, and a blank well without any cells was set as a control. The above serially diluted two samples were added at 50 μL per well. The plate was incubated in an incubator at 37° C. with 5% CO2 for 5 days. The culture medium was discarded, and CCK-8 (Dojindo, Japan, Cat. No. CK04) working solution was added at 100 μL per well. The plate was incubated for 4-5 h for color developing and placed in a microplate reader (manufacturer: Thermo, Model: VarioskanFlash). The absorbance values at a wavelength of 450 nm were read and recorded using a reference wavelength of 630 nm. The proliferation inhibition against the tumor cells were calculated.

[2] = tested on: NCI-N87 Her2++ tumor cells; test: Killing of Her2 positive target cell NCI-N87 with human PBMC effector cells (ADCC, CytoTox96); conditions: effector-to-target ratio 10:1
Procedure: The killing effects of the anti-Her2 bispecific antibodies on target cells (NCI-N87 Her2++, source: the Cell Bank of Type Culture Collection Committee of the Chinese Academy of Sciences) were studied using NK cells provided by human PBMCs (peripheral blood mononuclear cells), and the in vitro activity of the anti-Her2 bispecific antibodies was assessed by EC50 value.
The specific procedures are as follows: NCI-N87 cells were adjusted to a cell density of 3×10^5 cells/mL using 1640 medium containing 2% FBS (fetal bovine serum) and seeded in a 96-well cell culture plate (eppendorf, Cat. No. 0030730199) at 50 μL per well. […] Human PBMCs were adjusted to a cell density of 1.5×10^6 cells/mL using medium for experiment and added at 100 μL per well. An administration group (target cell+effector cell+antibody or control drug), a target cell group (NCI-N87 cell), an effector cell group (human PBMC), a target cell+effector cell group, a blank control group (medium) and a lysis solution control group, and a target cell maximum release group (target cell+lysis solution) were set, with the effector-to-target cell ratio being 10:1. […] After 45 min, the cell lysis rates were measured using a CytoTox96® nonradioactive cytotoxicity assay (Promega, G1780). […]

[3] = tested on: JIMT-1 tumor cells; test: Killing of trastuzumab-resistant cell JIMT-1 with human PBMC effector cells (ADCC, CytoTox96); conditions: effector-to-target ratio 20:1
Procedure: The killing effects of the anti-Her2 bispecific antibodies on target cells (JIMT-1, source: AddexBio, Cat. No. C0006005) were studied using NK cells provided by human PBMCs (peripheral blood mononuclear cells), and the in vitro activity of the anti-Her2 bispecific antibodies was assessed by EC50 value.
The specific procedures are as follows: JIMT-1 cells were adjusted to a cell density of 3×10^5 cells/mL using 1640 medium containing 2% FBS (fetal bovine serum) and seeded in a 96-well cell culture plate (eppendorf, Cat. No. 0030730199) at 50 μL per well. […] Human PBMCs were adjusted to a cell density of 1.5×10^6 cells/mL using medium for experiment and added at 100 μL per well. An administration group (target cell+effector cell+antibody or control drug), a target cell group (JIMT-1BT474 cell), an effector cell group (human PBMC), a target cell+effector cell group, a blank control group (medium) and a lysis solution control group, and a target cell maximum release group (target cell+lysis solution) were set, with the effector-to-target cell ratio being 20:1. 45 min prior to the assay, 20 μL/well of lysis solution (Promega, Cat. No. G182A) was added to the target cell maximum release group and the lysis solution control group. After 45 min, the cell lysis rates were measured using a CytoTox96® nonradioactive cytotoxicity assay (Promega, G1780). […]

CC[C@@]1(O)C(=O)OCc2c1cc1n(c2=O)Cc2c-1nc1cc(F)c(C)c3c1c2[C@@H](NC(=O)CO)CC3 [DXD]
pIC50 [1]: 8.35

T-DM1
pEC50 [2]: 10.13
pEC50 [3]: 10.08
